{"source": "patent US11370769B2", "about": "“TRPC5 inhibitors and methods of using same” (BOARD OF REGENTS OF THE UNIVERSITY OF NEBRASKA, priority 2017, dated 2022)", "key": {"[1]": {"target": "T1, TRPC5 (Homo sapiens, UniProt Q9UL62)", "T1 construct": "expressed in transfected cells; host or cells: HEK293", "T1 sequence (Q9UL62 1-973)": "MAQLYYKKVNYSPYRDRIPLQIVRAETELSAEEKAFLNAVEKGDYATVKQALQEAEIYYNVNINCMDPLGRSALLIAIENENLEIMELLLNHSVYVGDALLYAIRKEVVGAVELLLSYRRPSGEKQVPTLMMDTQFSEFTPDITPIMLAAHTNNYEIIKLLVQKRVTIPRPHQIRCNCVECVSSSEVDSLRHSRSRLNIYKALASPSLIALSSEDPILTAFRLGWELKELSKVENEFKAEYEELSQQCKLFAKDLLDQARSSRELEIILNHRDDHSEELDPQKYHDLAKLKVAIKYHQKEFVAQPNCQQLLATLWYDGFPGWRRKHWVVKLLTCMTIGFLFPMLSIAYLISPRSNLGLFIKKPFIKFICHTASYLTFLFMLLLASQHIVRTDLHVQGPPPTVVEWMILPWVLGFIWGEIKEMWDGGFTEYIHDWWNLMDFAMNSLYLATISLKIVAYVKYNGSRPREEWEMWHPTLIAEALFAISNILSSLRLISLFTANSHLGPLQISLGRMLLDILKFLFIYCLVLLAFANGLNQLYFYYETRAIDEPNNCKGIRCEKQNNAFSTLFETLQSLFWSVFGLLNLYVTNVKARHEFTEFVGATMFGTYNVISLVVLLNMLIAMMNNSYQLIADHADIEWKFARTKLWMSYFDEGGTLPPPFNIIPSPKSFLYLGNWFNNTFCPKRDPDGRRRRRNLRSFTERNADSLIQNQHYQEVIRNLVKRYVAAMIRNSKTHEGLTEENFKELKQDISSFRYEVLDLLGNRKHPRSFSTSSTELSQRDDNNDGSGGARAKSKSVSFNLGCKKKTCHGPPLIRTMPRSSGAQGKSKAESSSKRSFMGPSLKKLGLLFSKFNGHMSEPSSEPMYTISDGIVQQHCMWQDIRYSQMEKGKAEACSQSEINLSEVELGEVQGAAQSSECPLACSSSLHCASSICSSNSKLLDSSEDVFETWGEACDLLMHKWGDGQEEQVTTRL", "experiment": "Syncropath % inhibition TRPC5", "type": "cell-based", "details": "read-out: Syncropath % inhibition TRPC5 @3 μM; heading: Syncropath % inhibition TRPC5 @3"}, "[2]": {"test_system": "podocytes", "experiment": "ROS assay in wild-type podocytes treated with AngII", "type": "cell-based, mouse", "details": "WT podocytes, AngII 10 μM, 30 μM compound, 3 hours", "protocol": "(§1) Podocyte culture and viral transduction: Immortalized mouse podocytes were cultured as previously described (10, 11). Podocyte viral transduction was performed using lentivirus as previously described (10, 11). Briefly, lentivirus production was carried out in HEK293T cells at 60% confluence, and viral particles were collected two days after transfection and purified by centrifugation at 1,000 rcf for 5 min. Purified lentivirus was frozen at −80° C. until further use. Podocytes were transduced with lentivirus after 7 days of differentiation, and assays were performed 5 days after viral transduction.\nROS and cell viability assays: For ROS experiment in FIG. 4A, mature podocytes were cultured as previously described. Cells were incubated with CellRox Deep Red reagent (ThermoFisher) for 30 min at 37° C. Then cells were treated with DMSO, 10 μM angiotensin II, 10 μM angiotensin II with 30 μM AC1903, or 10 μM angiotensin II with 30 μM N-acetyl-L-cysteine (NAC) for 3 hours at 37° C. Cells were washed with PBS twice and fluorescence images were observed using Olympus IX71 microscopy. Fluorescence intensities were then analyzed using ImageJ software."}, "[3]": {"test_system": "caAT1R podocytes", "experiment": "ROS assay in caAT1R expressing podocytes", "type": "cell-based, mouse", "details": "30 μM ML204, 30 μM AC1903 or 50 μM NSC23677 for 36 hours", "protocol": "as §1\n(§2) For experiments in FIG. 4B/C, pCDNA3.1 AT1AR-Δ324 (rat AT1R NM_030985.4) containing HA tag (Plasmid #45635, Addgene) underwent site directed mutagenesis (Agilent) to generate the N111S substitution. For FIG. 4B, differentiated podocytes were transduced with the AT1A-N111S/Δ324 construct in six-well plates. Six days after viral transduction, cells were treated with either vehicle, 30 μM ML204, 30 μM AC1903 or 50 μM NSC23677 for 36 hours. Intracellular production of ROS was measured using a cell-permeable fluorescent dye, 5-(and-6)-chloromethyl-2′,7′-dichlorodihydrofluorescein diacetate, acetyl ester (CM-H2DCFDA, Molecular Probes). Cells were incubated with 5 μM CM-H2DCFDA at 37° C. for 45 min in Hanks' balanced salt solution (HBSS). Cells were then collected, resuspended in HBSS, stained with propidium iodide and the fluorescence intensity was assessed by flow cytometry using MACSQuant Analyzer (Miltenyi Biotec, Bergisch Gladbach, Germany). Living cells, which were PI negative, were selected by FACS gating and the fluorescence of CM-H2DCFDA was recorded on the FL-1 channel (525 nm). For FIG. 4C, differentiated podocytes were transduced with the AT1A-N111S/Δ324 construct in 96 well plates. Six days after transduction, the cells were treated with either vehicle, 30 μM ML204, 30 μM AC1903 or 50 μM NSC23677 for 36 hours. […]"}, "[4]": {"test_system": "caAT1R podocytes", "experiment": "Cell viability assay in podocytes expressing caAT1R", "type": "cell-based, mouse", "details": "30 μM ML204, 30 μM AC1903 or 50 μM NSC23677 for 36 hours", "protocol": "as §1, §2"}}}
{"smiles": "Fc1ccc(Cc2c(NCc3ccco3)nc3ccccn23)cc1", "note": "[Compound 5, 3-(4-fluorobenzyl)-N-(furan-2-ylmethyl)imidazo[1,2-a]pyridin-2-amine]", "values": [{"measurement": "inhibition at 3 µM", "setting": "[1]", "value": 88.7, "unit": "%"}]}
{"smiles": "c1ccc(Cc2c(N3CCCC3)nc3ccccn23)cc1", "note": "[Compound 7, 3-benzyl-2-(pyrrolidin-1-yl)imidazo[1,2-a]pyridine]", "values": [{"measurement": "inhibition at 3 µM", "setting": "[1]", "value": 33.4, "unit": "%"}]}
{"smiles": "CC(=O)N[C@@H](CS)C(=O)O", "note": "[NAC, N-acetyl-L-cysteine, reference compound]", "values": [{"measurement": "AngII-induced ROS", "setting": "[2]", "value": "rescued podocytes from AngII-induced ROS"}]}
{"smiles": "CCN(CC)CCSc1c2ccc(Cl)cc2nc2ccc(OC)cc12.Cl", "note": "[NSC23677]", "values": [{"measurement": "caAT1R-induced ROS generation", "setting": "[3]", "value": "blocked caAT1R-induced ROS generation"}, {"measurement": "podocyte cell death on caAT1R expression", "setting": "[4]", "value": "protected from cell death"}]}
